From article PMC8398714, “Synthesis and Evaluation of Biological Activities of Bis(spiropyrazolone)cyclopropanes: A Potential Application against Leishmaniasis” (Molecules, 2021)
Several values for one entry are separate records, joined by “and”; a condition that tells them apart may be missing. Equal entries are not always repeated. Where two headings read alike, the source gives them in different places.

Key:
[1] = DPPH radical scavenging assay; settings: 30 min, 515 nm
Description: The stock solution of the compounds was prepared by dissolving 4 in dimethyl sulfoxide (DMSO) to a concentration of 4 mg/mL. The solution was diluted with methanol until a concentration of 400 µg/mL was obtained and then used immediately.
The experimental procedure was adapted from the literature. Briefly, 100 µL of a 0.2 mM methanol solution of DPPH (2, 2-diphenyl-1-picrylhydrazyl) radical were added to 100 µL of methanolic solutions of 4 prepared as serial two-fold dilutions from the stock solution in 96-well microfilter plates. Standards and edaravone were also prepared in the same concentrations. The mixture was incubated in dark at room temperature for 30 min and the absorbance was read at 515 nm on a Cytation 5 (BioTek) spectrophotometer.
The % DPPH scavenging activity was then calculated by using the following formula:(1) % DPPH scavenging = 100 × [(Asample+DPPH−Asample blank)/(ADPPH−Asolvent)]
The antioxidant activity of the compound was expressed as IC50, which is defined as the concentration that could scavenge 50% of the DPPH free radical. The IC50 values were calculated in GraphPad Prism 7.02 (GraphPad Software, Corp.) The results are given as a mean ± standard deviation (SD) of experiments done in triplicate.

[2] = Cytotoxicity, MTT assay on RAW 264.7 macrophages; format: cell-based; settings: mouse
Description: Raw 264.7 (ATCC® TIB-71™) was maintained in Dulbecco’s Modified Eagle Medium (DMEM) (Gibco, Invitrogen, Gibco, Carlsbad, CA, USA) supplemented with 10% fetal bovine serum (FBS) (Eurobio, Les Ulis, France) and 100 IU/mL penicillin + 100 μg/mL streptomycin (Gibco), at 37 °C in a 5% CO2 atmosphere. The medium was renewed once a week. The viability was determined using MTT (Thiazolyl Blue Tetrazolium Bromide) dye assay as described before for leishmanicidal activity assessment, with some variations. Here, 5 × 10^4 cells/well in a final volume of 100 µL were deposited into a 96-well plate, in triplicate. Saponin (2.4 mg/mL) and untreated cells were used as positive control and negative control, respectively. A stock solution was prepared in DMSO and immediately diluted in media to obtain different serial concentrations (100–0.01 µM). After 48 h exposure to the compounds, 10 µL/well of MTT (5 mg/mL MTT in PBS) were added, and the plate was incubated at 37 °C for 2 h in the dark. Cells were pelleted by centrifugation at 4400 rpm for 10 min and the media was removed. Then, 100 µL/well of DMSO were added and the absorbance at 570 nm was recorded; a reference wavelength of 630 nm was used for background subtraction.

MCF-7 = experiment: MTS cell viability assay on MCF-7 cells; format: cell-based; settings: Homo sapiens, MCF7, 48 h, Dox 1 µM, mean ± SEM, NA = no activity, read-out: Percentage (%) of inhibition, MCF-7
Description: (§1) Five tumor human cancer cell lines—cerebral astrocytoma (D-384), grade IV prostatic adenocarcinoma (PC-3), mammary adenocarcinoma (MCF-7), human colon carcinoma (RKO) and lung carcinoma (A-549)—along with one immortalized hamster cell line (CHO K-1) were used. The cells PC-3, MCF-7 and RKO were cultured in RPMI-1640, D-384 on DMEM and CHO K-1 on HAM F-12 medium supplemented with 10% fetal bovine serum (FBS, Invitrogen, Karlsruhe, Germany), 1% antibiotic-antimitotic solution (100 units/mL penicillin G, 100 µg/mL streptomycin, and 0.25 µg/mL amphotericin B, Gibco, Grand Island, NY, USA), and 1% L-glutamine (2 mM, Gibco). The cells were incubated at 37 °C in a 5% CO2 atmosphere. The viable cells were counted using the trypan blue exclusion method in a hemocytometer.
(§2) The MTS (5-[3-(carboxymethoxy)phenyl]-3-(4,5-dimethyl-2-thiazolyl)-2-(4-sulfo- phenyl)-2H-tetrazolium inner salt) cell viability assay was used to assess the inhibitory effects of the extracts on the survival of human cancer cell lines. A total of 3–5 × 10^3 cells/well were seeded into 96-well plates and were allowed to adhere for 24 h. […] Each concentration/assay was performed three times. Dimethyl sulfoxide (DMSO) was used as a negative control at a final concentration of 0.1% v/v, and 1 µM Doxorubicin was used as a positive control. The cells were incubated with the treatments for 48 h, after which 20 µL MTS (5 mg/mL, Aqueous One Solution Reagent, Gibco) was added and further incubated for 4 h at 37 °C. The absorbance was measured at 570 nm. The data obtained with cells treated with DMSO were defined to represent 100% viability.

CHO-K1 cells = format: cell-based, hamster
Description: Cells were mixed with 150 μL low-melting-point agarose 1% (LMP, Promega, Madison, WI, USA) and added to microscope slides previously prepared with normal-melting-point agarose 1% (NMP, Invitrogen, Carlsbad, CA, USA). A third LMP agarose layer (150 µL) was added. The slides were immersed in a cooled lysing solution (pH 10) with 10% DMSO, 1% Triton X-100 (Sigma Aldrich, Saint Louis, MO, USA), 2.5 M NaCl (Loba Chemie, Mumbai, India), 100 mM EDTA and 10 mM Tris (Invitrogen, Carlsbad, CA, USA) for 12 h at 4 °C. All steps after lysis were performed under darkness or yellow light to prevent additional DNA damage. The slides were immersed for 20 min in an electrophoresis buffer solution (pH 13) with NaOH 300 mM (Fisher Scientific, Waltham, MA, USA) and EDTA 1 mM (Invitrogen, Carlsbad, CA, USA) to allow for DNA unwinding. Electrophoresis was later performed at 25 V and 300 mA for 20 min. Slides were then sprayed with a neutralization buffer (pH 7.5) 0.4 M Tris (Sigma Aldrich, Saint Louis, MO, USA). Ethidium bromide (60 µL) was added to each slide, and a cover glass was placed on the gel. The DNA migration was analyzed using a ZEISS-Axioskop 2 plus microscope with fluorescence (40×) by scoring 100 cells per slide in duplicate. After that, the tail moment parameter was analyzed by a Comet Assay IV software (Perceptive Instruments Ltd., Bury St Edmunds, Suffolk, UK).

PC-3 = experiment: MTS cell viability assay on PC-3 cells; format: cell-based; settings: Homo sapiens, 48 h; for inhibition at 100 µM: Dox 1 µM, mean ± SEM, NA = no activity, read-out: Percentage (%) of inhibition, PC-3; for IC50: 15-150 µM, mean ± SEM of triplicates
Description: as §1, §2

A-549 = experiment: MTS cell viability assay on A-549 cells; format: cell-based; settings: Homo sapiens, A549; 100 µM, 48 h; Dox 1 µM; mean ± SEM; NA = no activity; read-out: Percentage (%) of inhibition, A-549
Description: as §1, §2

[3] = RAW cells, 48 h, MTT, read-out: Cytotoxicity CC50
[4] = Statistical Analyses S1, unrounded mean of CC50 in RAW cells, unit inferred, read-out: CC50 original values, x.1 (Mean)

CC1=NN(c2ccccc2)C(=O)[C@@]12C(c1ccccc1)[C@@]21C(=O)N(c2ccccc2)N=C1C (relative stereo) [4b, (5R*,6R*)-4,10-Dimethyl-2,8,11-triphenyl-2,3,8,9-tetraazadispiro[4.0.4.1]undeca-3,9-diene-1,7-dione]
IC50 [1]: > 300 µM
CC50 at 48 h [2, 3]: 3.4 ± 1.5 µM
CC50 at 48 h [2, 4]: 3.44 µM
inhibition at 100 µM (MCF-7): 7.87 ± 2.92%
Genotoxic effect in comet assay versus DMSO control (CHO-K1 cells): did not show differences with respect to the control of DMSO
inhibition at 100 µM (PC-3): 17.6 ± 2.83%

CC1=NN(c2ccccc2)C(=O)[C@@]12C(c1ccccc1[N+](=O)[O-])[C@@]21C(=O)N(c2ccccc2)N=C1C (relative stereo) [4c, (5R*,6R*)-11-(2-Nitrophenyl)-4,10-dimethyl-2,8-diphenyl-2,3,8,9-tetraazadispiro[4.0.4.1]undeca-3,9-diene-1,7-dione]
IC50 [1]: > 300 µM
CC50 at 48 h [2, 3]: 2.3 ± 0.2 µM
CC50 at 48 h [2, 4]: 2.26 µM
inhibition at 100 µM (MCF-7): 16.7 ± 5.36%
inhibition at 100 µM (A-549): 6.1 ± 0.86%
inhibition at 100 µM (PC-3): 11 ± 3.5%

CC1=NN(c2ccccc2)C(=O)[C@@]12C(c1cccc([N+](=O)[O-])c1)[C@@]21C(=O)N(c2ccccc2)N=C1C (relative stereo) [4d, (5R*,6R*)-11-(3-Nitrophenyl)-4,10-dimethyl-2,8-diphenyl-2,3,8,9-tetraazadispiro[4.0.4.1]undeca-3,9-diene-1,7-dione]
IC50 [1]: > 300 µM
CC50 at 48 h [2, 3]: 3.9 ± 1.1 µM
CC50 at 48 h [2, 4]: 3.92 µM
inhibition at 100 µM (MCF-7): 39.4 ± 2.29%
Genotoxic effect in comet assay versus DMSO control (CHO-K1 cells): most significant
inhibition at 100 µM (A-549): 13.6 ± 0.74%
inhibition at 100 µM (PC-3): 46.1 ± 1.91%
IC50 (PC-3): 90.9 ± 2.56 µM

COc1ccc(C2[C@@]3(C(=O)N(c4ccccc4)N=C3C)[C@]23C(=O)N(c2ccccc2)N=C3C)cc1 (relative stereo) [4e, (5R*,6R*)-11-(4-Methoxyphenyl)-4,10-dimethyl-2,8-diphenyl-2,3,8,9-tetraazadispiro[4.0.4.1]undeca-3,9-diene-1,7-dione]
IC50 [1]: > 300 µM
CC50 at 48 h [2, 3]: 7.3 ± 2 µM
CC50 at 48 h [2, 4]: 7.28 µM
inhibition at 100 µM (MCF-7): 4.47 ± 3.48%
inhibition at 100 µM (A-549): 7.97 ± 1.46%
inhibition at 100 µM (PC-3): 17.9 ± 3.4%

COc1ccccc1C1[C@@]2(C(=O)N(c3ccccc3)N=C2C)[C@]12C(=O)N(c1ccccc1)N=C2C (relative stereo) [4f, (5R*,6R*)-11-(2-Methoxyphenyl)-4,10-dimethyl-2,8-diphenyl-2,3,8,9-tetraazadispiro[4.0.4.1]undeca-3,9-diene-1,7-dione]
IC50 [1]: > 300 µM
CC50 at 48 h [2, 3]: 12.8 ± 1.2 µM
CC50 at 48 h [2, 4]: 12.8 µM
inhibition at 100 µM (A-549): 10.4 ± 3.28%
inhibition at 100 µM (PC-3): 28.3 ± 2.56%

CC1=NN(c2ccccc2)C(=O)[C@@]12C(c1ccc([N+](=O)[O-])cc1)[C@@]21C(=O)N(c2ccccc2)N=C1C (relative stereo) [4k, (5R*,6R*)-11-(4-Nitrophenyl)-4,10-dimethyl-2,8-diphenyl-2,3,8,9-tetraazadispiro[4.0.4.1]undeca-3,9-diene-1,7-dione]
IC50 [1]: 234 µM and < 300 µM
CC50 at 48 h [2, 3]: 3.3 ± 1 µM
CC50 at 48 h [2, 4]: 3.31 µM
inhibition at 100 µM (MCF-7): 43 ± 3.46%
Genotoxic effect in comet assay versus DMSO control (CHO-K1 cells): most significant
inhibition at 100 µM (A-549): 26.7 ± 3.03%
inhibition at 100 µM (PC-3): 46.7 ± 3.78%
IC50 (PC-3): 83.18 ± 0.45 µM

COC(=O)c1ccc(C2[C@@]3(C(=O)N(c4ccccc4)N=C3C)[C@]23C(=O)N(c2ccccc2)N=C3C)cc1 (relative stereo) [4q, (5R*,6R*)-Methyl-4[4,10-dimethyl-2,8-diphenyl-2,3,8,9-tetraazadispiro[4.0.4.1]undeca-3,9-diene-1,7-dione-11-yl]benzoate]
IC50 [1]: > 300 µM
CC50 at 48 h [2, 3]: 4 ± 0.8 µM
CC50 at 48 h [2, 4]: 4.01 µM
inhibition at 100 µM (MCF-7): 32.5 ± 2.33%
Genotoxic effect in comet assay versus DMSO control (CHO-K1 cells): did not show differences with respect to the control of DMSO
inhibition at 100 µM (A-549): 13 ± 1.99%
inhibition at 100 µM (PC-3): 50.5 ± 2.38%
IC50 (PC-3): 109 ± 2.77 µM

CC1=NN(c2ccccc2)C(=O)[C@@]12C(c1ccc(C(F)(F)F)cc1)[C@@]21C(=O)N(c2ccccc2)N=C1C (relative stereo) [4r, (5R*,6R*)-11-(4-Trifluoromethylphenyl)-4,10-dimethyl-2,8-diphenyl-2,3,8,9-tetraazadispiro[4.0.4.1]undeca-3,9-diene-1,7-dione]
IC50 [1]: > 300 µM
CC50 at 48 h [2, 3]: 6.5 ± 0.9 µM
CC50 at 48 h [2, 4]: 6.48 µM
inhibition at 100 µM (MCF-7): 45.8 ± 2.11%
inhibition at 100 µM (A-549): 28.6 ± 3.71%
inhibition at 100 µM (PC-3): 54.7 ± 1.95%
IC50 (PC-3): 49.8 ± 5.51 µM

CC1=NN(c2ccccc2)C(=O)[C@@]12C(c1ccc(OC(F)(F)F)cc1)[C@@]21C(=O)N(c2ccccc2)N=C1C (relative stereo) [4s, (5R*,6R*)-11-(4-Trifluoromethoxyphenyl)-4,10-dimethyl-2,8-diphenyl-2,3,8,9-tetraazadispiro[4.0.4.1]undeca-3,9-diene-1,7-dione]
IC50 [1]: > 300 µM
CC50 at 48 h [2, 3]: 8.6 ± 3.2 µM
CC50 at 48 h [2, 4]: 8.63 µM
inhibition at 100 µM (MCF-7): 9.91 ± 3.37%
inhibition at 100 µM (A-549): 24.4 ± 1.36%
inhibition at 100 µM (PC-3): 49.7 ± 2.11%
IC50 (PC-3): 70.3 ± 1.9 µM

CC1=NN(c2ccccc2)C(=O)[C@@]12C(c1cccc(F)c1)[C@@]21C(=O)N(c2ccccc2)N=C1C (relative stereo) [4t, (5R*,6R*)-11-(3-Fluorophenyl)-4,10-dimethyl-2,8-diphenyl-2,3,8,9-tetraazadispiro[4.0.4.1]undeca-3,9-diene-1,7-dione]
IC50 [1]: > 300 µM
CC50 at 48 h [2, 3]: 2.7 ± 0.7 µM
CC50 at 48 h [2, 4]: 2.75 µM
inhibition at 100 µM (MCF-7): 31.4 ± 3.65%
Genotoxic effect in comet assay versus DMSO control (CHO-K1 cells): did not show differences with respect to the control of DMSO
inhibition at 100 µM (A-549): 3.43 ± 2.42%
inhibition at 100 µM (PC-3): 13.8 ± 2.87%
